Source: patent US20040235942A1 (priority 2003, published 2004)

Tests used:
[1] = requires twice daily dosing; cited from earlier work
[2] = tested on: patients with idiopathic venous thromboembolism; assay: PREVENT trial: bleeding, mortality, stroke, cancer, myocardial infarction, drug discontinuation; format: in vivo, human
Excerpt: (§1) All participants were followed for recurrent VTE, major bleeding events, and all-cause mortality.
(§2) All index events were confirmed by objective criteria at the central Clinical Coordinating Center based upon venography, compression ultrasound or MRI reports (for deep vein thrombosis) or by ventilation/perfusion scans, angiograms, or chest computed tomography scans (for pulmonary embolism). Idiopathic events were defined as those not occurring within 90 days of surgery, trauma, or a diagnosis of metastatic cancer. […] Every patient gave written informed consent and the study protocol was approved by each institutional review board.
(§3) Randomization was stratified by clinical site, time since index event (≦6 months, >6 months) and by whether the index event was the patient's first ever VTE. All participants were then followed with office visits once every two months that included blinded INR evaluations and dose adjustments. To further ensure blinding, sham dose adjustments were made in the placebo group.
(§4) As PREVENT was specifically designed to evaluate clinically relevant recurrent thromboembolic events, no surveillance for asymptomatic thrombosis was undertaken. Rather, at each visit the occurrence of any incident clinical events since the last visit two months earlier was evaluated. All endpoints were reviewed by a committee of physicians unaware of study drug assignment. The endpoint of recurrent deep vein thrombosis was confirmed if there was a positive venography study, doppler compression ultrasound, or MRI. Events documented by clinical diagnosis alone were not confirmed. […] Major hemorrhage was defined as any bleeding episode that led either to hospitalization or transfusion.
(§5) As an index of net clinical benefit, we defined on an a priori basis a composite endpoint of recurrent VTE, major hemorrhage, and all-cause mortality. Incident stroke events were also monitored. These were classified as hemorrhagic or thromboembolic on the basis of clinical records or CT/MRI scanning which were available for all episodes. To avoid double-counting, hemorrhagic strokes were considered as major hemorrhages in analyses using the combined endpoint of recurrent thrombosis, major hemorrhage, and all-cause mortality.
The method of Kaplan and Meier was used to estimate the probability of recurrence by time within treatment groups. Estimation of the number of patients needed to treat (NNT) to prevent one recurrent event was based on rates at one year. […] The hypothesis of a varying effect of treatment over time was tested in a proportional hazards model including an interaction of treatment with time. Tests and estimates of treatment effects on the composite endpoint used the same methods.

[3] = tested on: International Normalized Ratio; assay: PREVENT trial: blinded INR evaluation (CoaguChek fingerstick); format: in vivo, human; conditions: during follow-up; interquartile range 1.4 to 2.0
Excerpt: During the run-in, at randomization, and throughout follow-up, all INR assessments at each study site were made using specially designed fingerstick devices with an identical thromboplastin [International Sensitivity Index 2.0] (CoaguChek, Roche Diagnostics, Indianapolis, Ind.). These devices were altered electronically to provide a coded study value which was transmitted to the Data Coordinating Center. All dose adjustments were made in a blinded manner using a simple clinical algorithm (Appendix A).
as §3

[4] = tested on: factor VII activity and prothrombin fragment F1+2; conditions: in vivo; cited from earlier work
[5] = tested on: patients with idiopathic venous thromboembolism; assay: PREVENT trial: composite endpoint of recurrent VTE, major hemorrhage and all-cause mortality; format: in vivo, human
Excerpt: as §1, §5
Comparisons between the warfarin and placebo groups in the distributions of continuous variables used Wilcoxon rank sum tests; for categorical variables, comparisons used Chi-square tests. The primary analysis was an intention-to-treat comparison of the difference between time to first confirmed recurrent VTE after randomization in the two treatment arms using a two-sided log-rank test. The method of Kaplan and Meier was used to estimate the probability of recurrence by time within treatment groups. Estimation of the number of patients needed to treat (NNT) to prevent one recurrent event was based on rates at one year. […]

[6] = tested on: patients with idiopathic venous thromboembolism; assay: PREVENT trial: recurrent venous thromboembolism; format: in vivo, human
Excerpt: as §1, §2
The run-in phase was also used to exclude individuals with less than 80 percent compliance.
as §3, §4
Comparisons between the warfarin and placebo groups in the distributions of continuous variables used Wilcoxon rank sum tests; for categorical variables, comparisons used Chi-square tests. The primary analysis was an intention-to-treat comparison of the difference between time to first confirmed recurrent VTE after randomization in the two treatment arms using a two-sided log-rank test. The method of Kaplan and Meier was used to estimate the probability of recurrence by time within treatment groups. Estimation of the number of patients needed to treat (NNT) to prevent one recurrent event was based on rates at one year. We used the proportional hazards model for estimation of the relative hazard of recurrent VTE associated with low-intensity warfarin treatment and obtained confidence intervals from this model. The hypothesis of a varying effect of treatment over time was tested in a proportional hazards model including an interaction of treatment with time. Tests and estimates of treatment effects on the composite endpoint used the same methods.
The primary pre-specified subgroup analysis evaluated the effect of treatment separately in persons with and without either factor V Leiden or the prothrombin mutation. The hypothesis of a different effect of treatment by genetic status was tested in a proportional hazards model including the interaction of treatment with the presence of either factor V Leiden or G20210A prothrombin mutation. Other descriptive comparisons within subgroups used the same methods.

CCOC(=O)CN[C@@H](C(=O)N1CC[C@H]1C(=O)NCc1ccc(/C(N)=N\O)cc1)C1CCCCC1 [ximelagatran]
half-life [1]: relatively short

CC(=O)CC(c1ccccc1)c1c(O)c2ccccc2oc1=O (centres unmarked) [low-intensity warfarin, warfarin]
Cancer, Rate ([2]; in vivo): 0.7 events per 100 person years | Deaths, Rate ([2]; in vivo): 0.7 events per 100 person years | Major bleeding, Rate ([2]; in vivo): 0.9 events per 100 person years | Myocardial Infarction, Rate ([2]; in vivo): 0.5 events per 100 person years | confirmed strokes ([2]; in vivo): 1 | patients in whom study drug was discontinued before completion of follow-up ([2]; in vivo): 62 patients | major bleeds that were gastrointestinal ([2]; of 5 major bleeds): 3 | major bleeds that were hematuria in the setting of renal calculus removal ([2]; of 5 major bleeds): 1 | major bleeds that were lower-extremity hematoma ([2]; of 5 major bleeds): 1 | major hemorrhage requiring transfusion of packed red blood cells ([2]; patient was receiving full-dose warfarin at the time of the bleed): 1 | median INR [3]: 1.7 | reducing biochemical markers of coagulation such as factor VII activity and levels of prothrombin fragment F1+2 [4]: effective | Composite Endpoint, Rate ([5]; first VTE, major bleed, or death): 4.1 events per 100 person years | reduction in composite study endpoint of recurrent VTE, major hemorrhage, or death ([5]; versus placebo): 48% | reduction in risk of recurrent VTE ([6]; analysis by use or non-use of long-term anticoagulation at the time of the recurrent event): 81% | participants with recurrent VTE after cessation of study drug ([6]; in vivo): 7 | Recurrent VTE, Rate ([6]; intention-to-treat): 2.6 events per 100 person years | reduction in risk of recurrent VTE ([6]; men): 53% | Recurrent VTE, Rate ([6]; subgroup: Factor V Leiden or Prothrombin Mutation absent): 2.7 events per 100 person years | Recurrent VTE, Rate ([6]; subgroup: Factor V Leiden or Prothrombin Mutation present): 2.2 events per 100 person years | Recurrent VTE, Rate ([6]; subgroup: age 30-44 years): 3.3 events per 100 person years | Recurrent VTE, Rate ([6]; subgroup: age 45-64 years): 1.7 events per 100 person years | Recurrent VTE, Rate ([6]; subgroup: age 65-89 years): 3.9 events per 100 person years | Recurrent VTE, Rate ([6]; subgroup: men): 4.0 events per 100 person years | Recurrent VTE, Rate ([6]; subgroup: women): 1.1 events per 100 person years | risk reduction of recurrent VTE ([6]; those without factor V Leiden or the prothrombin mutation): 58% | Recurrent VTE, Rate ([6]; time after randomization >1 year): 2.5 events per 100 person years | Recurrent VTE, Rate ([6]; time after randomization ≦1 year): 2.7 events per 100 person years | patients needed to be treated to prevent one recurrent event ([6]; treated for one year, based on rates at one year): 14 patients | risk reduction of recurrent VTE ([6]; versus placebo, intention-to-treat): 64% | reduction in risk of recurrent VTE ([6]; women): 80%
